Assay results from paper PMC7256108 (Cellular and Molecular Life Sciences: CMLS, 2019).
Residue numbers refer to the chain shown, from its start. Where two headings read alike, the source gives them in different places.

Columns and labels:
Type in all cases: cell-based
OR2W1 L202S = target: T1, OR2W1 L202S (Homo sapiens, UniProt Q9Y3N9, L202S); test: GloSensor assay, OR2W1 L202S
T1 construct: 39aa rho-tag; expressed in transfected cells; host or cells: NxG 108CC15 or HEK-293 cells
T1 sequence (Q9Y3N9 1-320 L202S): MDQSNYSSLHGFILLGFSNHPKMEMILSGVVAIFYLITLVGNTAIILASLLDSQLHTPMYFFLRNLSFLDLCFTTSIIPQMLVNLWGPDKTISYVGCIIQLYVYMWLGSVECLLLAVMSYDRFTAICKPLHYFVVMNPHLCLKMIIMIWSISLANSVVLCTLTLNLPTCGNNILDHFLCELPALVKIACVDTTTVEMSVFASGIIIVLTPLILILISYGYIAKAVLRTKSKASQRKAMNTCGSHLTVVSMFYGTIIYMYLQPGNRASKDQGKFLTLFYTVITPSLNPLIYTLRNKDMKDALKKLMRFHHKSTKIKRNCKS
Protocol: (§1) All receptor variants used were generated by PCR-based site-directed mutagenesis in two steps. Gene-specific primers (mutation primers) were used according to Table S2 and Table S3. The mutation primers, which carried the changed nucleotides, were designed overlapping.
(§2) The assay was performed as reported above.
(§3) All data are presented as mean ± SD.

OR2W1 Y252A = target: T2, OR2W1 Y252A (Homo sapiens, UniProt Q9Y3N9, Y252A); test: GloSensor assay, OR2W1 Y252A; details: ligands 300 µmol/L
T2 construct: 39aa rho-tag; expressed in transfected cells; host or cells: NxG 108CC15 or HEK-293 cells
T2 sequence (Q9Y3N9 1-320 Y252A): T1 sequence (Q9Y3N9 1-320 L202S) with S202L, Y252A
Protocol: as §1, §2, §3

OR2W1 wt = target: T3, OR2W1 wt (Homo sapiens, UniProt Q9Y3N9); test: cAMP-luminescence GloSensor assay, recombinant OR2W1 wt
T3 construct: 39aa rho-tag; expressed in transfected cells; host or cells: NxG 108CC15 or HEK-293 cells
T3 sequence (Q9Y3N9 1-320): T1 sequence (Q9Y3N9 1-320 L202S) with S202L
Protocol: as §2, §3

OR2W1 Y259A = target: T4, OR2W1 Y259A (Homo sapiens, UniProt Q9Y3N9, Y259A); test: GloSensor assay, OR2W1 Y259A; details: ligands 300 µmol/L
T4 construct: full-length gene-specific forward and reverse primers were added; 39aa rho-tag; expressed in transfected cells; host or cells: NxG 108CC15 or HEK-293 cells
T4 sequence (Q9Y3N9 1-320 Y259A): T1 sequence (Q9Y3N9 1-320 L202S) with S202L, Y259A
Protocol: as §1, §2, §3

OR2W1 S109A = target: T5, OR2W1 S109A (Homo sapiens, UniProt Q9Y3N9, S109A); test: GloSensor assay, OR2W1 S109A
T5 construct: 39aa rho-tag; expressed in transfected cells; host or cells: NxG 108CC15 or HEK-293 cells
T5 sequence (Q9Y3N9 1-320 S109A): T1 sequence (Q9Y3N9 1-320 L202S) with S109A, S202L
Protocol: as §1, §2, §3

OR1A1 wt = target: T6, OR1A1 wt (Homo sapiens, UniProt Q9P1Q5); test: cAMP-luminescence GloSensor assay, recombinant OR1A1 wt; details: for EC50: OR1A1 wt
T6 construct: 39aa rho-tag; expressed in transfected cells; host or cells: NxG 108CC15 or HEK-293 cells
T6 sequence (Q9P1Q5 1-309): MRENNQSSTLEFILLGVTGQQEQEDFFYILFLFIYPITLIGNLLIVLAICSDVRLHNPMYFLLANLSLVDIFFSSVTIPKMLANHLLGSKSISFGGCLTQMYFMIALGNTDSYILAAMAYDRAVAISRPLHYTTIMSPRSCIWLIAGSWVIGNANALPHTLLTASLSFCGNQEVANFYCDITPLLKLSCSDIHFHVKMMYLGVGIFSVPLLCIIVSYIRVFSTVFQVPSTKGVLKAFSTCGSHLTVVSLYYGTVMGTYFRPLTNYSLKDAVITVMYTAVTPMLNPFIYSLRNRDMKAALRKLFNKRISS
Protocol: as §2, §3

OR2W1 Y252A/Y259A = target: T7, OR2W1 Y252A/Y259A (Homo sapiens, UniProt Q9Y3N9, Y252A/Y259A); test: GloSensor assay, OR2W1 Y252A/Y259A; details: ligands 300 µmol/L
T7 construct: full-length gene-specific forward and reverse primers were added; 39aa rho-tag; expressed in transfected cells; host or cells: NxG 108CC15 or HEK-293 cells
T7 sequence (Q9Y3N9 1-320 Y252A/Y259A): T1 sequence (Q9Y3N9 1-320 L202S) with S202L, Y252A, Y259A
Protocol: as §1, §2, §3

OR2W1 L202C = target: T8, OR2W1 L202C (Homo sapiens, UniProt Q9Y3N9, L202C); test: GloSensor assay, OR2W1 L202C
T8 construct: full-length gene-specific forward and reverse primers were added; 39aa rho-tag; expressed in transfected cells; host or cells: NxG 108CC15 or HEK-293 cells
T8 sequence (Q9Y3N9 1-320 L202C): T1 sequence (Q9Y3N9 1-320 L202S) with S202C
Protocol: as §1, §2, §3

OR2T11 C119R = target: T9, OR2T11 C119R (Homo sapiens, UniProt Q8NH01, C119R); test: GloSensor assay, OR2T11 C119R
T9 construct: expressed in transfected cells; host or cells: NxG 108CC15 or HEK-293 cells
T9 sequence (Q8NH01 whole entry C119R): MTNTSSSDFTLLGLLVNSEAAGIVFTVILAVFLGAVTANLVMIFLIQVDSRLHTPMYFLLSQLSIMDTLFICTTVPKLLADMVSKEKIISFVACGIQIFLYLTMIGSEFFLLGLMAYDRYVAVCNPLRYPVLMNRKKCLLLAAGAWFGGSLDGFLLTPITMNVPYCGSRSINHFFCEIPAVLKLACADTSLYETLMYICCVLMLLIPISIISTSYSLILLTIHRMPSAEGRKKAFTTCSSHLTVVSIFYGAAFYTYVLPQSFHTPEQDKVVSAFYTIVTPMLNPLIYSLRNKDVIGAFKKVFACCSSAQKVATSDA
Source text: as §3
Concentration-response relation of 3-mercapto-2-methylpentan-1-ol on OR2M3 in the absence or presence of each 30 µmol/L CuCl2 (a), and 30 µmol/L CuCl2 and the copper chelator TEPA (b). Concentration-response relation of 2-methylpropane-2-thiol on OR2T11 C119R in the absence or presence of 30 µmol/L CuCl2 (c). Concentration-response relation of 3-mercapto-2-methylpentan-1-ol on OR2M3 in the absence or presence of each 30 µmol/L FeCl3 (d); NiCl2 (e); CoCl2 (f); ZnSO4 (g); AgAc (h); AgNO3 (i) and colloidal silver (j). Comparison of efficacies of 20 µmol/L 3-mercapto-2-methylpentan-1-ol on OR2M3 in the absence or presence of different metal ions at 30 µmol/L (k). Note that the same data set in the absence of supplemented Cu^2+ (grey) is given in sub-panels (a-b, d-j) for didactic reasons. Data were mock control-subtracted, normalized to the OR2M3 wt signal in response to 3-mercapto-2-methylpentan-1-ol (20 µmol/L), measured in the absence of Cu^2+ (a-b, d-k) or rather normalized to the OR2T11 C119R signal in response to 2-methylpropan-2-thiol (100 µmol/L), measured in the presence of Cu^2+ (c), and shown as mean ± SD (n = 3 – 6). RLU = relative luminescence unit. 3MMP = 3-mercapto-2-methylpentan-1-ol. Note that for didactical reasons the concentration-response relations in Fig. 1b and Fig. S5a are the identical data set. […]

[1] = target: sphingosine-1-phosphate receptor 4 (S1P4); test: cAMP-luminescence GloSensor assay, endogenously expressed S1P4; details: footnote b: EC50 in nmol/L
Protocol: as §2, §3

OR2M3 wt = target: T10, OR2M3 wt (Homo sapiens, UniProt Q8NG83); test: cAMP-luminescence GloSensor assay, recombinant OR2M3 wt; details: no odorant
T10 construct: full-length gene-specific forward and reverse primers were added; 39aa rho-tag; expressed in transfected cells; host or cells: NxG 108CC15 or HEK-293 cells
T10 sequence (Q8NG83 1-312): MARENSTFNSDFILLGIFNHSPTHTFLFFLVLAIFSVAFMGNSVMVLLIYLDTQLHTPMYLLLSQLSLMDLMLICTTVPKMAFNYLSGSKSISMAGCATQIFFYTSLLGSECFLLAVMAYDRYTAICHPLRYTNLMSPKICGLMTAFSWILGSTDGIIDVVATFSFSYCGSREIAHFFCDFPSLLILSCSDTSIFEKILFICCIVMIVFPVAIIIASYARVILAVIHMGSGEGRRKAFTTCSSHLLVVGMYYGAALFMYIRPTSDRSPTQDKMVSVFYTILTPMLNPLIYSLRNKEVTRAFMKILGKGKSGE
Protocol: as §2, §3

[2] = 10 µmol/L Cu^2+, read-out: EC50 in the presence of Cu^2+
[3] = read-out: EC50 in the absence of Cu^2+
[4] = mean ± SD (n = 3–5), read-out: EC50 in the absence of Cu^2+
[5] = EC50 in the presence of Cu^2+, 10 µmol/L Cu^2+

SMILES: SCCc1ccccc1 [2-Phenylethanethiol, 2-phenylethanethiol]
- EC50 (OR2W1 L202S; [2]): 96.7 ± 4.66 µM
- EC50 (OR2W1 L202S; [3]): 97 ± 13 µM
- agonist function in mutant receptor (OR2W1 Y252A): non-functional
- EC50 (OR2W1 wt; [2]): 106.2 ± 0.93 µM
- EC50 (OR2W1 wt; [4]): 37.8 ± 0.62 µM
- agonist function in mutant receptor (OR2W1 Y259A): non-functional
- EC50 (OR2W1 S109A; [2]): 38.9 ± 5.38 µM
- EC50 (OR2W1 S109A; [3]): 34.4 ± 9.98 µM
- EC50 (OR1A1 wt; [2]): 73.1 ± 16.4 µM
- EC50 (OR1A1 wt; [3]): 206 ± 21.5 µM
- efficacy in activating OR1A1 (OR1A1 wt; presence of Cu^2+ at 10 µmol/L): reduced
- agonist function in mutant receptor (OR2W1 Y252A/Y259A): non-functional
- EC50 (OR2W1 L202C; [2]): 63.4 ± 3.77 µM
- EC50 (OR2W1 L202C; [3]): 65.1 ± 10.8 µM

SMILES: CC(C)(C)S [2-methylpropane-2-thiol]
- Relative amplitude (OR2T11 C119R; 30 µmol/L CuCl2, normalized to OR2T11 C119R signal (100 µmol/L agonist) in the presence of Cu^2+): 1
- EC50 (OR2T11 C119R; presence of 30 µmol/L CuCl2 (footnote d)): 0.25 ± 0.19 µM

SMILES: CCCC(S)CCOC(C)=O (stereo not shown) [3-Mercaptohexyl acetate, 3-mercaptohexyl acetate]
- EC50 (OR2W1 L202S; [2]): 311 ± 22.1 µM
- EC50 (OR2W1 L202S; [3]): 146 ± 6.48 µM
- agonist function in mutant receptor (OR2W1 Y252A): non-functional
- EC50 (OR2W1 wt; [2]): 121 ± 1.59 µM
- EC50 (OR2W1 wt; [4]): 132 ± 20.9 µM
- agonist function in mutant receptor (OR2W1 Y259A): non-functional
- EC50 (OR2W1 S109A; [2]): 127 ± 84.9 µM
- EC50 (OR2W1 S109A; [3]): 146 ± 23 µM
- EC50 (OR1A1 wt; [2]): 354 ± 113 µM
- EC50 (OR1A1 wt; [3]): 405 ± 86.7 µM
- agonist function in mutant receptor (OR2W1 Y252A/Y259A): non-functional
- EC50 (OR2W1 L202C; [2]): 114 ± 10.5 µM
- EC50 (OR2W1 L202C; [3]): 98.9 ± 7.49 µM

SMILES: C=C(C)[C@@H]1CC=C(C)C(=O)C1 [(R)-(-)-Carvone, (R)-(-)-carvone]
- EC50 (OR1A1 wt; [2]): 159 ± 43.1 µM
- EC50 (OR1A1 wt; [3]): 126 ± 34.1 µM

SMILES: C=CCOC(=O)Cc1ccccc1 [Allyl phenyl acetate, allyl phenyl acetate]
- EC50 (OR2W1 L202S; EC50 in the absence of Cu^2+): 37.6 ± 11.7 µM
- EC50 (OR2W1 L202S; [5]): 46 ± 14.3 µM
- agonist function in mutant receptor (OR2W1 Y252A): non-functional
- EC50 (OR2W1 wt; EC50 in the absence of Cu^2+, mean ± SD (n = 3–5)): 64.4 ± 3.58 µM
- EC50 (OR2W1 wt; [5]): 55.2 ± 8.59 µM
- agonist function in mutant receptor (OR2W1 Y259A): non-functional
- EC50 (OR2W1 S109A; EC50 in the absence of Cu^2+): 46 ± 11.6 µM
- EC50 (OR2W1 S109A; [5]): 119 ± 19.9 µM
- agonist function in mutant receptor (OR2W1 Y252A/Y259A): non-functional
- EC50 (OR2W1 L202C; EC50 in the absence of Cu^2+): 130 ± 82.5 µM
- EC50 (OR2W1 L202C; [5]): 73 ± 42.1 µM

SMILES: COCCN=C1S/C(=C\c2cc(C)n(-c3ccc(F)cc3F)c2C)C(=O)N1C [CYM50308]
- EC50 [1, 2]: 0.344 ± 0.091 µM
- EC50 [1, 3]: 0.517 ± 0.0746 µM

SMILES: [Cl][Cu][Cl] [Cu^2+, copper(II) chloride]
- odorant-independent constitutive activity of OR2M3 (OR2M3 wt; Cu^2+ supplementation > 10 µmol/L): decreased
- basal activity of OR2M3 (OR2M3 wt; Cu^2+ supplementation of 10 µmol/L): did not inhibit
